In patent US20100080785A1, “DRIED FORMULATIONS” (Zymes, LLC, priority 2008, published 2010):

How the values were obtained:
[1] = stability and shelf life at ambient conditions; format: physicochemical; conditions: ubiquinol
Excerpt: By contrast, the dry formulations of ubiquinol disclosed herein remains white for weeks at ambient conditions.
By contrast, the dry formulations of omega-3 fatty acid disclosed herein remains odorless for weeks at ambient conditions.

[2] = stability of the solution on heating to 50-55° C.; format: physicochemical

degradation on heating without pH adjustment [2]	Compound	oxidation / colour on storage [1]
	COc1c(O)c(C)c(C/C=C(\C)CC/C=C(\C)CC/C=C(\C)CC/C=C(\C)CC/C=C(\C)CC/C=C(\C)CC/C=C(\C)CC/C=C(\C)CC/C=C(\C)CCC=C(C)C)c(O)c1OC [bulk ubiquinol, ubiquinol]	gradually oxidizes and develops a yellow hue
decomposes and undergoes hydrolysis	polyoxyethanyl tocopheryl sebacate [PTS]	
